The text below walks through data of ChEMBL document CHEMBL6092226, “Tilting the Scales toward EGFR Mutant Selectivity: Expanding the Scope of Bivalent "Type V" Kinase Inhibitors” (J Med Chem, 2024).

Active and inactive are the calls of the source. The calls are words filed in the database; no cut-off is given here.

Data set [1] has as its target Epidermal growth factor receptor (Homo sapiens, UniProt P00533). Kind of data set: Time-dependent irreversible inhibition of N-terminal GST-tagged wildtype human EGFR cytoplasmic domain (669 to 1210 residues) extracted from Sf21 insect cells assessed as apparent inactivation constant (Ki) incubated for 240 mins in presence of ATP by fluorescence based analysis. The following applies: read-out: Ki(app).

The nature of data set [2]: Drug metabolism in pooled male human liver microsomes assessed as thioether oxidation mediated metabolite formation at 150 uM measured after 2 hrs by LC-MS analysis. It counts as ADME, Microsome.
The target in data set [3] is Epidermal growth factor receptor (Homo sapiens, UniProt P00533, L858R). Kind of data set: Time-dependent irreversible inhibition of GST-tagged EGFR L858R mutant cytoplasmic domain (669 to 1210 residues) (unknown origin) assessed as apparent inactivation constant (Ki) incubated for 240 mins in presence of ATP by fluorescence based analysis. The conditions noted are these: read-out: Ki(app).
Chain of Epidermal growth factor receptor (Homo sapiens, UniProt P00533, L858R) (P00533 25-1210 L858R limits assumed): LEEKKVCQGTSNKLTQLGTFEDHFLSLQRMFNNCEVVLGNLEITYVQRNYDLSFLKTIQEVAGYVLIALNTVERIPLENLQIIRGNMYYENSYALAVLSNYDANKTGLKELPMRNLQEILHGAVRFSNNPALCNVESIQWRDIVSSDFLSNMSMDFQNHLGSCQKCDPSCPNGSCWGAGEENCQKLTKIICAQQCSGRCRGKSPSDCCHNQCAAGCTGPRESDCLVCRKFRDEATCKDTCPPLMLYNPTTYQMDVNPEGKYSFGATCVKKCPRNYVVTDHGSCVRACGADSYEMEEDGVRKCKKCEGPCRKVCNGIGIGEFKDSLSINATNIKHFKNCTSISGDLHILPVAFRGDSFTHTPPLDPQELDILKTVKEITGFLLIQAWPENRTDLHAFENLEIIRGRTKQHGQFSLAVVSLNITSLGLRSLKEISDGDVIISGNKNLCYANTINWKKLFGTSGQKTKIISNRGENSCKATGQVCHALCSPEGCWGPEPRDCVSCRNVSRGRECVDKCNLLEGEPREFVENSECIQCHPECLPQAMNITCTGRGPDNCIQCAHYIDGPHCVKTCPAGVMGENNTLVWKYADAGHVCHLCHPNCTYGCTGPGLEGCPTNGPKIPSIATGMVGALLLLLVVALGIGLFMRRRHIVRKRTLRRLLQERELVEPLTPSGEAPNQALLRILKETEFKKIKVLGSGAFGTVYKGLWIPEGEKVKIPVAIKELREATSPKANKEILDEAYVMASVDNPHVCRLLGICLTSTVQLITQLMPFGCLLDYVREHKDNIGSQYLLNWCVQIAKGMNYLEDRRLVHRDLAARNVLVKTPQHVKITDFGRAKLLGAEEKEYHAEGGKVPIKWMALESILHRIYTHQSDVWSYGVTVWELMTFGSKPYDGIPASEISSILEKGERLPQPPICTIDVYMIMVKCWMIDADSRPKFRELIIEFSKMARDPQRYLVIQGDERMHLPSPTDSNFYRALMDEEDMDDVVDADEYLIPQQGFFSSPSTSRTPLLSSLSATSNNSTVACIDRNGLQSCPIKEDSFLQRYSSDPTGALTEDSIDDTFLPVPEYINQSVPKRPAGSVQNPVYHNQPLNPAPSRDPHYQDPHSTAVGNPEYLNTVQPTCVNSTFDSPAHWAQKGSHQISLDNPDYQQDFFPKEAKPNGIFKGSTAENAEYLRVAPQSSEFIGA

In data set [4] the target is Epidermal growth factor receptor (Homo sapiens, UniProt P00533, L858R/T790M). Kind of data set: Time-dependent irreversible inhibition of GST-tagged EGFR L858R/T790M mutant cytoplasmic domain (669 to 1210 residues) (unknown origin) assessed as apparent inactivation constant (Ki) incubated for 240 mins in presence of ATP by fluorescence based analysis. The following applies: read-out: Ki(app).
Chain of Epidermal growth factor receptor (Homo sapiens, UniProt P00533, L858R/T790M) (P00533 25-1210 T790M/L858R limits assumed): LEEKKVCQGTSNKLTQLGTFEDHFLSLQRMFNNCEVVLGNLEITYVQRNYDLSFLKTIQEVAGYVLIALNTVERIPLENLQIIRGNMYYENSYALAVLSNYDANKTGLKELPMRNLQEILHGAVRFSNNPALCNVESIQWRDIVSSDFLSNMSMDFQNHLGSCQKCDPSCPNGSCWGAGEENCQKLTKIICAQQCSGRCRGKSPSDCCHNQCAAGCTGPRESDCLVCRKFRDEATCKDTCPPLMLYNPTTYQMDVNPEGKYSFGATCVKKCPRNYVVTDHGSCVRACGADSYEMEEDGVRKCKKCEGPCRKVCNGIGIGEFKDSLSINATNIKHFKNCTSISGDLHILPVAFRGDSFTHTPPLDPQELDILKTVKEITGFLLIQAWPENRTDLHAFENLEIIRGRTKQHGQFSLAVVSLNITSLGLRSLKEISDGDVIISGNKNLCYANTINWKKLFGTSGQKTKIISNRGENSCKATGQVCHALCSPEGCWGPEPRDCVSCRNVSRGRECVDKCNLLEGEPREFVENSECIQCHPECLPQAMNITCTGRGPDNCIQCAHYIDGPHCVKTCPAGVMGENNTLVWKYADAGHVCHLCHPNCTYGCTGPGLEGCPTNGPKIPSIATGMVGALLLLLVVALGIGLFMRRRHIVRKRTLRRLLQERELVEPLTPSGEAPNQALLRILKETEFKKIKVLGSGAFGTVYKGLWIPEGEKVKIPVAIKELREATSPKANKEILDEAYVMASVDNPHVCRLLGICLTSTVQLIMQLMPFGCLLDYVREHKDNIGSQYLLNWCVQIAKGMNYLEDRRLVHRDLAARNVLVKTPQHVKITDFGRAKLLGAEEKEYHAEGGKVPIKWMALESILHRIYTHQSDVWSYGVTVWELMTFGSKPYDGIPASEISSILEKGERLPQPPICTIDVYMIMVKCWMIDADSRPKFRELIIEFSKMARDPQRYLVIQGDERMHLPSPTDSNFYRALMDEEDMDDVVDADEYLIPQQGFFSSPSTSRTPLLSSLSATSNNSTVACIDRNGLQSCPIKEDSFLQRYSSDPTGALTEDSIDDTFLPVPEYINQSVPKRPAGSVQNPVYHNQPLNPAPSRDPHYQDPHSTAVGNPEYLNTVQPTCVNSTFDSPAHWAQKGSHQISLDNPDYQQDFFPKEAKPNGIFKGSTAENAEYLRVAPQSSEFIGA

The nature of data set [5]: Metabolic stability in pooled male human liver microsomes at 150 uM measured after 2 hrs in presence of NADPH regenerating system by LC-MS analysis. The format is ADME, Microsome. For orientation: Liver microsomes are a subcellular fraction often used to study metabolism.
For data set [6], the target named is T1, Tyrosine-protein kinase TXK (Homo sapiens) (UniProt P42681).
T1 sequence (whole entry): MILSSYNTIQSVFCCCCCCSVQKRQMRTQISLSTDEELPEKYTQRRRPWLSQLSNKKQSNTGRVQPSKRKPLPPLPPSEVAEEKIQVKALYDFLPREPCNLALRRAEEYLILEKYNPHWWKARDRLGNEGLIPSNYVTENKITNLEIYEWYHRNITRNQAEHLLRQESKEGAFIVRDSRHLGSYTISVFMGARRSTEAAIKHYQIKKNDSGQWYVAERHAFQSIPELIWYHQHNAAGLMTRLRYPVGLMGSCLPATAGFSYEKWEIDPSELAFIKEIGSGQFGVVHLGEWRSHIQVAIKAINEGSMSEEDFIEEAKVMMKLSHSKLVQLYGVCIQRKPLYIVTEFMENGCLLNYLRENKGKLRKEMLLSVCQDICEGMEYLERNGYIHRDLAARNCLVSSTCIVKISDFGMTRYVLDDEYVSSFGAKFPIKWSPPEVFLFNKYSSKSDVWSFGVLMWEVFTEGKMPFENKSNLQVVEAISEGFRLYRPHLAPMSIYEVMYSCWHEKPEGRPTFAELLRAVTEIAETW
Kind of data set: Inhibition of TXK (unknown origin) at 1 uM by Eurofins DiscoverX KINOMEscan analysis.

For data set [7], the target named is T2, Tyrosine-protein kinase ITK/TSK (Homo sapiens) (UniProt Q08881).
T2 sequence (whole entry): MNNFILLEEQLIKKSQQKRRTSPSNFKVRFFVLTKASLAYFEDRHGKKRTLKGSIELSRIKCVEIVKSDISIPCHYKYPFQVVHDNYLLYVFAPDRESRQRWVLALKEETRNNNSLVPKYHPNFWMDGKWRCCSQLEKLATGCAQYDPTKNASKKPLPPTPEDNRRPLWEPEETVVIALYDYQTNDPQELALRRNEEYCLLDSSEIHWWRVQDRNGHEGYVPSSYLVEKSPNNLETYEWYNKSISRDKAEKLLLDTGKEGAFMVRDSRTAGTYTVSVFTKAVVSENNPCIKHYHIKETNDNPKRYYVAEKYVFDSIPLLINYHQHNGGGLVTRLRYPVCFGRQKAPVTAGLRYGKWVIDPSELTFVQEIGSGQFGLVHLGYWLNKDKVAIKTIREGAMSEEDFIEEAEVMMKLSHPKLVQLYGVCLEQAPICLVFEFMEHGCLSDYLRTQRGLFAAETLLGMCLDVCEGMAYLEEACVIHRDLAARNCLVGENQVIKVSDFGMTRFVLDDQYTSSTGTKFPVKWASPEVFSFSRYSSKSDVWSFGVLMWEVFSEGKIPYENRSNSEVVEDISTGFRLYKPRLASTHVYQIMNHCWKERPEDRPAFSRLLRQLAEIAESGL
As to the kind of experiment: Inhibition of ITK (unknown origin) at 1 uM by Eurofins DiscoverX KINOMEscan analysis.

The target of data set [8] is T3, Dual specificity mitogen-activated protein kinase kinase 7 (Homo sapiens) (UniProt O14733).
T3 sequence (whole entry): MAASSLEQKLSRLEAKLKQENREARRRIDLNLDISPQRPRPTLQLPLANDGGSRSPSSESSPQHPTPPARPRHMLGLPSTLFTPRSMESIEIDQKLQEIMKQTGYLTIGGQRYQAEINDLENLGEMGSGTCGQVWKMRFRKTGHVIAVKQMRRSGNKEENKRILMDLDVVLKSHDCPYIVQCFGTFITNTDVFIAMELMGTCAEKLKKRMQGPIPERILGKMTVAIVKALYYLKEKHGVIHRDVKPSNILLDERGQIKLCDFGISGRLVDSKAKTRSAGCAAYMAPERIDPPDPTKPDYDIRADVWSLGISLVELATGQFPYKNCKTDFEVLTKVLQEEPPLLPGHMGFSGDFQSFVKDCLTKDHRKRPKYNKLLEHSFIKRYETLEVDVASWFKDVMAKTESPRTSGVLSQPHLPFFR
Kind of data set: Inhibition of MKK7 (unknown origin) at 1 uM by Eurofins DiscoverX KINOMEscan analysis.

Data set [9] has as its target Tyrosine-protein kinase Blk (Homo sapiens) (UniProt P51451). As to the kind of experiment: Inhibition of BLK (unknown origin) at 1 uM by Eurofins DiscoverX KINOMEscan analysis.

Chain of Epidermal growth factor receptor (Homo sapiens, UniProt P00533) (P00533 whole entry, the tested form may be a part): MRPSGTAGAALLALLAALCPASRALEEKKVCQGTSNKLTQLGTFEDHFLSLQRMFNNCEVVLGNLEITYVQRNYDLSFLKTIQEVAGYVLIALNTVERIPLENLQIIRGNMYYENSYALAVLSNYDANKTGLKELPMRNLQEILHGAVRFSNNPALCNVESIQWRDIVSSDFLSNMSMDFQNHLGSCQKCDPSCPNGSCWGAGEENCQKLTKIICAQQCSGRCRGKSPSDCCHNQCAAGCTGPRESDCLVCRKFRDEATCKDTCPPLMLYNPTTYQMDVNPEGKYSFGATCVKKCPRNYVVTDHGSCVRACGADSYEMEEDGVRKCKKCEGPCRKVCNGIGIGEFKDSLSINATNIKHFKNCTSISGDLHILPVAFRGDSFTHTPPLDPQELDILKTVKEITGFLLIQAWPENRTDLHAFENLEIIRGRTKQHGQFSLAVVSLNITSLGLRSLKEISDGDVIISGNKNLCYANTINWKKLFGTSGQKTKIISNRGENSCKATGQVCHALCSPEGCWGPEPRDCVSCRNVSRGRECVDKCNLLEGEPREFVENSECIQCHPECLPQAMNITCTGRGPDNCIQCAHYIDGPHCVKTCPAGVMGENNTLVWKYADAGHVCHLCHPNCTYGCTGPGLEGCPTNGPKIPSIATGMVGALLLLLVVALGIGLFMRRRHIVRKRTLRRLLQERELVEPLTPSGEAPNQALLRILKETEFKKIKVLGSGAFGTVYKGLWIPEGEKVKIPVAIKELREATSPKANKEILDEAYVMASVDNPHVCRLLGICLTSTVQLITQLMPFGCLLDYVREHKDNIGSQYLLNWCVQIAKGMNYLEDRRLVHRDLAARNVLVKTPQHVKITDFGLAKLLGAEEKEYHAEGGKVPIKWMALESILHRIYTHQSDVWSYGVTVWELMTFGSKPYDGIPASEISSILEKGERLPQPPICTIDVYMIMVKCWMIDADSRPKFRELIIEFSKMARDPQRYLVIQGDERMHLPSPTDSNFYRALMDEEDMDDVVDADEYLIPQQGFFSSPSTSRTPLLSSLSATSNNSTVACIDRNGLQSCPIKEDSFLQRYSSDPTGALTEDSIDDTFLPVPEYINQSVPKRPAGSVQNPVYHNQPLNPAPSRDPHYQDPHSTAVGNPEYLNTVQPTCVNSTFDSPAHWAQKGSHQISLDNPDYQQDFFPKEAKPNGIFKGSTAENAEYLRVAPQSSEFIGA
Chain of Tyrosine-protein kinase Blk (Homo sapiens) (P51451 2-505 limits assumed): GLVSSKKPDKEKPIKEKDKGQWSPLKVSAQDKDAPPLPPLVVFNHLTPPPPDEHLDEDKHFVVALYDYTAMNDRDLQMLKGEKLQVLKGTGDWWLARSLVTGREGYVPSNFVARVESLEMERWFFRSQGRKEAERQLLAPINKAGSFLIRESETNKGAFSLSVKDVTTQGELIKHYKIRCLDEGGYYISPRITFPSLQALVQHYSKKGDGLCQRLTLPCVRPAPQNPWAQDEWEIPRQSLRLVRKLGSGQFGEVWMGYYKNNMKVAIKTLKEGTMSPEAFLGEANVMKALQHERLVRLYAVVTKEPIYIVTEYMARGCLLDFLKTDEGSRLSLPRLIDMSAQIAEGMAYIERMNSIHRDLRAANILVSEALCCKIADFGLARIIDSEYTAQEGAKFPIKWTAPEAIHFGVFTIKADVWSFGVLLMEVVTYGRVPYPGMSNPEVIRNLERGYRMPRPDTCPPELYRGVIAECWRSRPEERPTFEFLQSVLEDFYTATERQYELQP

In the case of `C=CC(=O)Nc1ccc(OC)c(Nc2cc(-c3[nH]c(SC)nc3-c3cccc(NC(=O)c4cccc(O)c4CN4Cc5ccccc5C4=O)c3)ccn2)c1`, the Ki was 1320 nM in [1], 276 nM in data set [3] and 543 nM in data set [4]. In addition, the Drug metabolism result in data set [2] is recorded as “metabolite_detected”. The Stability entry in data set [5] is “Stable”. Besides, the inhibition entry in data set [6], in [7], in [8] and in data set [9] was “inactive” throughout.
